This note sets out measurements from ChEMBL document CHEMBL1201862, “PubChem BioAssay data set” (2004).

Some test systems named below: K562; A498; OVCAR-3; SW-620; SNB-19; IGROV-1; HL-60; SK-MEL-28; A549; U-251; HCT-15; TK-10; UO-31; LOX IMVI; COLO 205; UACC-62; Malme-3M.
Common to all, as to assay: NCI-60 cell line screen, 48 h

The structures appear in SMILES notation.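 In this assay, cells in 96-well plates receive the compound at five concentrations for 48 hours. Endpoints are linearly interpolated between the surrounding concentrations. The concentration for 50% growth inhibition is given as GI50.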 Activity calls are given as the source filed them. No stated cut-off is given here; in the data, active = GI50 up to about 1.1 µM and inactive = higher.

As for `CCOC(=O)NC1CC2CCC1(OC)C=C2C` (centres undefined), the GI50 in the experiment on K562 was > 100 µM (inactive); in the experiment with A498 it was > 100 µM (inactive); in the experiment on OVCAR-3, > 100 µM (inactive); with SW-620, > 90.6 µM (inactive); in the experiment on SNB-19 it was > 100 µM (inactive); in the experiment on IGROV-1, > 100 µM (inactive). Moreover, the GI50 with HL-60 is > 100 µM (inactive); in the experiment with SK-MEL-28, > 100 µM (inactive); in the experiment on A549, > 100 µM (inactive); in the experiment on U-251, > 100 µM (inactive); in the experiment on HCT-15, greater than 100 µM; in the experiment with TK-10, > 100 µM (inactive). Also, the GI50 in the experiment on UO-31, in the experiment with LOX IMVI, with COLO 205, in the experiment on UACC-62 and with Malme-3M was > 100 µM (inactive) each time.

On to `CCNC(C)Cc1ccccc1` (centres undefined), for which the GI50 in the experiment with K562, in the experiment with A498, with OVCAR-3, with SW-620, in the experiment with SNB-19 and with IGROV-1 was > 100 µM (inactive) in each case. For the same compound, the GI50 was > 100 µM (inactive) with HL-60; > 100 µM (inactive) with SK-MEL-28; > 100 µM (inactive) in the experiment with A549; > 100 µM (inactive) with U-251; greater than 100 µM in the experiment with HCT-15; > 100 µM (inactive) in the experiment with TK-10. Further, the GI50 with UO-31, in the experiment on LOX IMVI, in the experiment on COLO 205, in the experiment with UACC-62 and in the experiment with Malme-3M was > 100 µM (inactive) in each case.

With `COc1ccc(OC(C(=O)O)C(C)C)c2c1CCCC2=O` (centres undefined), the GI50 in the experiment with K562, in the experiment with A498, in the experiment on OVCAR-3, in the experiment with SW-620, with SNB-19 and in the experiment on IGROV-1 was > 100 µM (inactive) in each case. Also, the GI50 with HL-60 was > 100 µM (inactive); with SK-MEL-28, > 100 µM (inactive); with A549, > 100 µM (inactive); in the experiment with U-251, > 100 µM (inactive); with HCT-15, greater than 100 µM; with TK-10, > 100 µM (inactive). Besides, the GI50 with UO-31, with LOX IMVI, in the experiment on COLO 205, with UACC-62 and in the experiment with Malme-3M was > 100 µM (inactive) each time.

Regarding `CC1=CC(C)(C)N=C2SC(c3ccc(N)cc3)=NN12`, the GI50 in the experiment with K562 is 32.6 µM (inactive); in the experiment with A498 it was 63.4 µM (inactive); with OVCAR-3 it was 58.2 µM (inactive); in the experiment on SW-620 it was > 41 µM (inactive); in the experiment on SNB-19, > 87.3 µM (inactive); with IGROV-1 it was > 100 µM (inactive). In addition, the GI50 with HL-60 was 18.1 µM (inactive); in the experiment on SK-MEL-28 it was > 100 µM (inactive); with A549, 51.9 µM (inactive); with U-251, 59.8 µM (inactive); in the experiment with HCT-15, 31.6 µM; in the experiment with TK-10 it was > 100 µM (inactive). The GI50 was 28 µM (inactive) in the experiment on UO-31; > 58.5 µM (inactive) in the experiment with LOX IMVI; 42.8 µM (inactive) in the experiment on COLO 205; 44.6 µM (inactive) with UACC-62; > 100 µM (inactive) with Malme-3M.

On to `COc1ccc(N2C(=O)[C@@H]3[C@@H]4CC(C)CC[C@@H]4c4c([nH]c5ccccc45)[C@@H]3C2=O)cc1` (some centres undefined), for which the GI50 in the experiment with K562 is 30.7 µM (inactive); in the experiment with A498 it was 16.4 µM (inactive); in the experiment with OVCAR-3 it was 19.8 µM (inactive); in the experiment with SW-620, 13.1 µM (inactive); with SNB-19, 8.24 µM (inactive); with IGROV-1 it was 18.8 µM (inactive). Further, the GI50 in the experiment with HL-60 was 29.1 µM (inactive); in the experiment on SK-MEL-28, 36 µM (inactive); in the experiment with A549 it was 17.3 µM (inactive); with U-251, 11.4 µM (inactive); in the experiment on HCT-15 it was 15.3 µM; with TK-10, 18.8 µM (inactive). The GI50 with UO-31 was 17 µM (inactive); in the experiment on LOX IMVI it was 10.5 µM (inactive); in the experiment with COLO 205, 33 µM (inactive); with UACC-62 it was 15.9 µM (inactive); in the experiment on Malme-3M it was 34.4 µM (inactive).

As for `CN(/N=C/c1cccc2cccnc12)c1ccccc1`, the GI50 in the experiment with K562 is > 100 µM (inactive); in the experiment on A498, > 100 µM (inactive); in the experiment with OVCAR-3, 13.2 µM (inactive); in the experiment with SW-620, > 100 µM (inactive); in the experiment with SNB-19 it was 59.8 µM (inactive); in the experiment on IGROV-1, 73.6 µM (inactive). The GI50 was > 100 µM (inactive) in the experiment with HL-60; > 100 µM (inactive) in the experiment with SK-MEL-28; > 100 µM (inactive) with A549; > 100 µM (inactive) in the experiment with U-251; greater than 100 µM with HCT-15; 71.1 µM (inactive) in the experiment with TK-10. The GI50 with UO-31, in the experiment on LOX IMVI, in the experiment on COLO 205, with UACC-62 and in the experiment with Malme-3M was > 100 µM (inactive) each time.

`Cc1noc(/N=C2\C=C(Nc3onc(C)c3C)C(=O)c3ccccc32)c1C`: the GI50 is 8.81 µM (inactive) with K562; > 100 µM (inactive) in the experiment with A498; 2.88 µM (inactive) in the experiment with OVCAR-3; > 100 µM (inactive) in the experiment on SW-620; > 100 µM (inactive) with SNB-19; > 100 µM (inactive) in the experiment with IGROV-1. Further, the GI50 was 18.7 µM (inactive) in the experiment with HL-60; > 100 µM (inactive) in the experiment on SK-MEL-28; 87.1 µM (inactive) in the experiment with A549; 46.1 µM (inactive) in the experiment with U-251; greater than 100 µM with HCT-15; > 100 µM (inactive) in the experiment on TK-10. Besides, the GI50 with UO-31 is 17.6 µM (inactive); in the experiment on LOX IMVI, 11 µM (inactive); in the experiment with COLO 205, > 100 µM (inactive); with UACC-62, 27.7 µM (inactive); in the experiment with Malme-3M it was > 100 µM (inactive).

Consider `O=C(CCN(C(=O)O)S(=O)(=O)c1ccc(NC(=O)c2ccccc2)cc1)NC1CCCCC1`, for which the GI50 is 27.4 µM (inactive) with K562; > 100 µM (inactive) in the experiment on A498; > 100 µM (inactive) in the experiment on OVCAR-3; 16.3 µM (inactive) in the experiment on SW-620; > 100 µM (inactive) in the experiment with SNB-19; > 100 µM (inactive) in the experiment on IGROV-1. The GI50 is 30.3 µM (inactive) with HL-60; > 100 µM (inactive) in the experiment with SK-MEL-28; > 100 µM (inactive) in the experiment with A549; 36.3 µM (inactive) in the experiment on U-251; 47.6 µM in the experiment with HCT-15; > 100 µM (inactive) with TK-10. Besides, the GI50 was > 100 µM (inactive) with UO-31; > 100 µM (inactive) in the experiment on LOX IMVI; 47.4 µM (inactive) in the experiment on COLO 205; > 100 µM (inactive) with UACC-62; > 100 µM (inactive) in the experiment with Malme-3M.

On to `CC(=O)OCC1OC(n2cc([N+](=O)[O-])c(=O)[nH]c2=O)C(OC(C)=O)C(OC(C)=O)C1OC(C)=O` (centres undefined), for which the GI50 in the experiment with K562, in the experiment on A498, in the experiment on OVCAR-3, in the experiment with SW-620, in the experiment on SNB-19 and in the experiment on IGROV-1 was > 100 µM (inactive) each time. In addition, the GI50 with HL-60 is > 100 µM (inactive); with SK-MEL-28 it was > 100 µM (inactive); in the experiment with A549 it was > 100 µM (inactive); with U-251, > 100 µM (inactive); in the experiment on HCT-15, greater than 100 µM; in the experiment on TK-10, > 100 µM (inactive). Besides, the GI50 with UO-31, with LOX IMVI, in the experiment with COLO 205, in the experiment with UACC-62 and in the experiment with Malme-3M was > 100 µM (inactive) throughout.

For `COc1ccc2c(c1)[n+]([O-])c(-c1c(Cl)cccc1Cl)c(N)[n+]2[O-]`, the GI50 was 53.6 µM (inactive) with K562; > 100 µM (inactive) with A498; 38.9 µM (inactive) in the experiment on OVCAR-3; 47.1 µM (inactive) in the experiment on SW-620; 50 µM (inactive) with SNB-19; 47.4 µM (inactive) in the experiment with IGROV-1. Also, the GI50 was 36.8 µM (inactive) in the experiment with HL-60; 29.9 µM (inactive) in the experiment with SK-MEL-28; 45.2 µM (inactive) in the experiment on A549; 37.9 µM (inactive) with U-251; 31.8 µM in the experiment with HCT-15; > 100 µM (inactive) in the experiment with TK-10. Besides, the GI50 was 85.3 µM (inactive) with UO-31; 66.1 µM (inactive) in the experiment on LOX IMVI; 30.2 µM (inactive) in the experiment with COLO 205; 37.7 µM (inactive) in the experiment on UACC-62; 21.3 µM (inactive) in the experiment on Malme-3M.

With `CCOC(=O)C1=C(N)N(c2ccccc2)/C(=C(/C#N)c2nc3ccccc3[nH]2)S1`, the GI50 in the experiment on K562, in the experiment on A498, in the experiment with OVCAR-3, with SW-620, in the experiment on SNB-19 and in the experiment on IGROV-1 was > 100 µM (inactive) each time. The GI50 with HL-60 is > 100 µM (inactive); in the experiment on SK-MEL-28, > 100 µM (inactive); in the experiment on A549, > 100 µM (inactive); in the experiment on U-251 it was > 100 µM (inactive); in the experiment on HCT-15 it was greater than 100 µM; in the experiment with TK-10, > 100 µM (inactive). Moreover, the GI50 with UO-31, with LOX IMVI, in the experiment with COLO 205, in the experiment with UACC-62 and with Malme-3M was > 100 µM (inactive) in each case.

With `CC(=O)N/C=C/c1cc(O)ccc1O`, the GI50 was 35.9 µM (inactive) in the experiment with K562; 51.3 µM (inactive) in the experiment on A498; 16 µM (inactive) in the experiment on OVCAR-3; 13.9 µM (inactive) in the experiment with SW-620; > 52.7 µM (inactive) with SNB-19; > 55.1 µM (inactive) in the experiment with IGROV-1. Also, the GI50 in the experiment with HL-60 was 10.1 µM (inactive); with SK-MEL-28, 32.8 µM (inactive); in the experiment on A549, > 61.8 µM (inactive); in the experiment on U-251, 37.2 µM (inactive); in the experiment on HCT-15, 40.8 µM; in the experiment with TK-10 it was 39.2 µM (inactive). In addition, the GI50 in the experiment on UO-31 was 23.4 µM (inactive); in the experiment on LOX IMVI it was 30.1 µM (inactive); in the experiment with COLO 205, 29.1 µM (inactive); with UACC-62, 32.2 µM (inactive); in the experiment on Malme-3M, > 44.6 µM (inactive).
